How the values were obtained:
potassium arsenate = compound: O=[As]([O-])(O)O.[K+] [potassium arsenate]; experiment: thermal stability z-score vs DMSO; higher = more thermally stabilized by treatment; conditions: HeLa; arsenate concentration 1 mM
Method: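 Cellular thermal proteome profiling in HeLa cells treated with 1 mM arsenate for 1 h (DMSO pretreatment), heated to ten temperatures (37-66.3 °C). Soluble protein was quantified by TMT mass spectrometry relative to DMSO controls; the thermal stability score was transformed to a z-score; mean of n = 3 experiments.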

lipoamide = compound: NC(=O)CCCCC1CCSS1 [lipoamide]; experiment: as above; conditions: HeLa, lipoamide concentration 100 µM
Method: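 Cellular thermal proteome profiling in HeLa cells. Cells were treated with 100 µM lipoamide for 1 h, with or without 1 mM arsenate for a further 1 h, then heated to ten temperatures (37-66.3 °C), and soluble protein was quantified by TMT mass spectrometry relative to 0.1% DMSO controls. The thermal stability score (sum of log2 fold changes minus the abundance score) was transformed to a z-score; mean of n = 3 experiments.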

[1] = arsenate co-treatment: 1 mM arsenate 1 h
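Also: each temperature applied for 3 min, abundance score taken as mean log2 fold change at the two lowest temperatures, z-score obtained by mean subtraction and division by SD.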

UniProt Q7L5Y1, sequence (Q7L5Y1 whole entry): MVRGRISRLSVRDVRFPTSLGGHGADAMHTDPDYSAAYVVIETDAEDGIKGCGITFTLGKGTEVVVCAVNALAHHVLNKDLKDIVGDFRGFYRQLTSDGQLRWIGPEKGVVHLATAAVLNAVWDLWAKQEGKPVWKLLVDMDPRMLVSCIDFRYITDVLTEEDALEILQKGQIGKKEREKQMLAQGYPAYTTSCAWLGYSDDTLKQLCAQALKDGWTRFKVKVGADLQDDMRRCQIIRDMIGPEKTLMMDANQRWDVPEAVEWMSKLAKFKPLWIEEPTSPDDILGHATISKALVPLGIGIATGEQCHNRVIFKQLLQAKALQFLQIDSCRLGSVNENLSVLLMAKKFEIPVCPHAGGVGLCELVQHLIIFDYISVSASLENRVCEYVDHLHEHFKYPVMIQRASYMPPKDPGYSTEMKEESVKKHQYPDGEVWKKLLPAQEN
UniProt P82970, sequence (P82970 whole entry): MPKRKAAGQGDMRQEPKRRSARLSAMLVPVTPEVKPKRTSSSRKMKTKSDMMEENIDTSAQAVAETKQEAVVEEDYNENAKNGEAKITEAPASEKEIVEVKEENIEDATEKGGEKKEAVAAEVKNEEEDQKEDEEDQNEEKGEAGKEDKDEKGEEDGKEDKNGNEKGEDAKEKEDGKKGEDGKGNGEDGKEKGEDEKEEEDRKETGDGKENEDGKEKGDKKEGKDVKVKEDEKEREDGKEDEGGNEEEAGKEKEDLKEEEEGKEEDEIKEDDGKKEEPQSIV
UniProt Q7Z3V4, sequence (Q7Z3V4 whole entry): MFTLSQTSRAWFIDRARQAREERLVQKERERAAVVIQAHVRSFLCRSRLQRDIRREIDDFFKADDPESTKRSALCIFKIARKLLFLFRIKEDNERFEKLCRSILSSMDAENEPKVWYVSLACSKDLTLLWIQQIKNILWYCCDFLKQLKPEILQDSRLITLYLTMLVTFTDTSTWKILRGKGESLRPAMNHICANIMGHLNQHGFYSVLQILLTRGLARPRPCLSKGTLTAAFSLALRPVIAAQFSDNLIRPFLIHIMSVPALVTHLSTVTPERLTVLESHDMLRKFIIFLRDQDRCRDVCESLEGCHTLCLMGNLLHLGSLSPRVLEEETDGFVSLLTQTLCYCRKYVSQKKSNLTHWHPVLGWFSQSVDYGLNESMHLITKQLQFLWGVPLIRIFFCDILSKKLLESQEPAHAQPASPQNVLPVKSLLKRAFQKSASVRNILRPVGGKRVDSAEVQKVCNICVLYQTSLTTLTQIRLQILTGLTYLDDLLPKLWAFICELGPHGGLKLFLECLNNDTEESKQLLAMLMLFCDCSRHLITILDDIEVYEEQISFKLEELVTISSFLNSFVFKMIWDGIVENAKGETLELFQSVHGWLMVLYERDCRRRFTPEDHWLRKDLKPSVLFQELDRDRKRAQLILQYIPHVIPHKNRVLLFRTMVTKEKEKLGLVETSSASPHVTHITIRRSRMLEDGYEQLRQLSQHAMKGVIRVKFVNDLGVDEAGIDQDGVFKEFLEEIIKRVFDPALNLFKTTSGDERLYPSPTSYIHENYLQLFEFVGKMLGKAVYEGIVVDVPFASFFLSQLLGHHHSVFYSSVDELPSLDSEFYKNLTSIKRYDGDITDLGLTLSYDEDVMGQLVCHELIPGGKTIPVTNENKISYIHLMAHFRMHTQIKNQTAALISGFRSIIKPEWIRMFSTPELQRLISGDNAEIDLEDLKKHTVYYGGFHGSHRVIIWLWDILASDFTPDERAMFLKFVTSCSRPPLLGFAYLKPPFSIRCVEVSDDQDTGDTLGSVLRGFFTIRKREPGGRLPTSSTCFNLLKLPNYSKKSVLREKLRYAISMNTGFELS
UniProt Q01974, sequence (Q01974 whole entry): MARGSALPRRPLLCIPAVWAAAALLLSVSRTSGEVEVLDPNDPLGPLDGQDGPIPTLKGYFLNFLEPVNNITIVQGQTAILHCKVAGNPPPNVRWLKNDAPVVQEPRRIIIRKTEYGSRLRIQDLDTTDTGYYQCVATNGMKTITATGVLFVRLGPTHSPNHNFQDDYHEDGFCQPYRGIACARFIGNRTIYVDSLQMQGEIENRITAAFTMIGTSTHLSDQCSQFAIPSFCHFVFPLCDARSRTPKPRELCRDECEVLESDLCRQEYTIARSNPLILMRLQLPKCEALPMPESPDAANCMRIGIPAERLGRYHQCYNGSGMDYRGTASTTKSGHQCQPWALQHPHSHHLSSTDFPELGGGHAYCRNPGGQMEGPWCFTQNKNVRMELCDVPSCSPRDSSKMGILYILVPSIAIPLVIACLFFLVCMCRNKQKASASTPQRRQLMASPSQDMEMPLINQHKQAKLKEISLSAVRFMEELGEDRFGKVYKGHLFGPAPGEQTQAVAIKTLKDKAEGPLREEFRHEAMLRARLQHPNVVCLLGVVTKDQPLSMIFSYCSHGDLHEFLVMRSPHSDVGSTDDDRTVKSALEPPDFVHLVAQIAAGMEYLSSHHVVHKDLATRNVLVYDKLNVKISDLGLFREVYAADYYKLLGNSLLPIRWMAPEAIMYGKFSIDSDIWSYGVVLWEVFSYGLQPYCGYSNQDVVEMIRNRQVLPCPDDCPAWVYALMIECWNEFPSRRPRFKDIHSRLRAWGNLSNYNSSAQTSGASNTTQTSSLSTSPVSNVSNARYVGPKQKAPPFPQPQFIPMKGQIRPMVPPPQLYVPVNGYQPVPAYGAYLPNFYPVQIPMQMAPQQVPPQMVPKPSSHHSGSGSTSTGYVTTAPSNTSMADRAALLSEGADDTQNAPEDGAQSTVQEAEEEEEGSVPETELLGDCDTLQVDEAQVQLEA
UniProt Q15545, sequence (Q15545 whole entry): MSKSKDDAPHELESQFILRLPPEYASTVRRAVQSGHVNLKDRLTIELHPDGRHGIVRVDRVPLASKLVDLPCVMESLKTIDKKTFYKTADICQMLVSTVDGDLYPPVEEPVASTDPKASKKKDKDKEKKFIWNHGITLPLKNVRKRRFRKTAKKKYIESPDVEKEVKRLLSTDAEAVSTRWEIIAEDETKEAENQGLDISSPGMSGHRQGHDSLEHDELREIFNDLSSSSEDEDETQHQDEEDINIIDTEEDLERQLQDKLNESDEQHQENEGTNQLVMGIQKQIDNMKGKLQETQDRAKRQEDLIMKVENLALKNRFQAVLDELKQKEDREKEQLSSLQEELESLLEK
UniProt P62877, sequence (P62877 whole entry, looked up): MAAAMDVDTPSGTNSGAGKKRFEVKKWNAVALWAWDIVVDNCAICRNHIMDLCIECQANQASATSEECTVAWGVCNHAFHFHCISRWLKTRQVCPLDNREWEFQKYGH
UniProt Q04206, sequence (Q04206 whole entry): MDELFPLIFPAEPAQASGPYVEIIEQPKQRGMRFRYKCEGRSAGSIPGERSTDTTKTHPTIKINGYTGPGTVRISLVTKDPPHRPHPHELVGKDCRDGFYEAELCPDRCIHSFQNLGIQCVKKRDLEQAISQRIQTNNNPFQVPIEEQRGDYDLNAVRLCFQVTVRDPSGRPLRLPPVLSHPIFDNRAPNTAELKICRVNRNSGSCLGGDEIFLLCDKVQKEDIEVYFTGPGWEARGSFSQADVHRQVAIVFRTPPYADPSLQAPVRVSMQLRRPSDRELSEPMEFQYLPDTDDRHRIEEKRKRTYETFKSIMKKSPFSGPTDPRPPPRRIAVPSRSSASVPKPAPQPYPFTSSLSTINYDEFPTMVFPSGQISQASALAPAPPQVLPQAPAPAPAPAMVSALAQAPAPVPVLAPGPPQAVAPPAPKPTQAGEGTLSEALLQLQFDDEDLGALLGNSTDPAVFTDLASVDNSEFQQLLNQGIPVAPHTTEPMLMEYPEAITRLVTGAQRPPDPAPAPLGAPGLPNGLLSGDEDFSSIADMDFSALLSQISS
UniProt Q6UVJ0, sequence (Q6UVJ0 whole entry): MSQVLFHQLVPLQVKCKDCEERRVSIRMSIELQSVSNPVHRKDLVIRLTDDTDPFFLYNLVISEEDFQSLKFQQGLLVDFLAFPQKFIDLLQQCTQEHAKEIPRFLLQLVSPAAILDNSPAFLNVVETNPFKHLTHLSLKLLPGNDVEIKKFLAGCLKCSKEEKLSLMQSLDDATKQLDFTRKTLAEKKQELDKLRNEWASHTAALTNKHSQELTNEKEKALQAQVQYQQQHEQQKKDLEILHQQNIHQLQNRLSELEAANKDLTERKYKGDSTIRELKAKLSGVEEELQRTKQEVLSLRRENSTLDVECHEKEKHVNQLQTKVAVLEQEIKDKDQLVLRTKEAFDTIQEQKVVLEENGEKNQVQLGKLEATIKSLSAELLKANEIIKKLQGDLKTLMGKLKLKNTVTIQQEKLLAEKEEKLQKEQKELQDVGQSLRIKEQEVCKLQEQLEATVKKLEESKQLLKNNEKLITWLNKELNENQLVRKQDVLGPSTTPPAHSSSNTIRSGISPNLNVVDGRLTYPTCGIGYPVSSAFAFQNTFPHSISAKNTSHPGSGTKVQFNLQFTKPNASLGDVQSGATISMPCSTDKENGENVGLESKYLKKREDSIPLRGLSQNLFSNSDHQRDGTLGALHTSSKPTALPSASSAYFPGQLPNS
UniProt P51636, sequence (P51636 whole entry): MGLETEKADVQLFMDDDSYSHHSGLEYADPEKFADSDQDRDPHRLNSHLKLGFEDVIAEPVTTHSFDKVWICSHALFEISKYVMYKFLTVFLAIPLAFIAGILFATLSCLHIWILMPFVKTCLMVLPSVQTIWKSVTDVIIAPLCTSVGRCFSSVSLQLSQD
UniProt O14817, sequence (O14817 whole entry): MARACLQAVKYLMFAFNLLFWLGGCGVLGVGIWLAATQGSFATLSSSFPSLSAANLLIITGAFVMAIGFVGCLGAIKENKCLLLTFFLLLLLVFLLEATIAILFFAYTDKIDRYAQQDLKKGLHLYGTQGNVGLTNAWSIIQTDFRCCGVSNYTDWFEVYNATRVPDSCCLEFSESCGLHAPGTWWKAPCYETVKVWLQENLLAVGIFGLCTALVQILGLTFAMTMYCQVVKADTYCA

Target	thermal stability z-score (potassium arsenate)	thermal stability z-score (lipoamide; [1])	thermal stability z-score (lipoamide; arsenate co-treatment: none)
C9ORF114 (UniProt Q5T280)	-0.288	0.288	0.265
NEMP1 (UniProt O14524)	0.154	-0.805	-0.823
SH3PXD2B (UniProt A1X283)	-0.433	-0.428	-0.272
TIPRL (UniProt O75663)	0.122	-0.215	-0.0559
GPATCH2 (UniProt Q9NW75)	0.239	-0.115	0.00549
HTT (UniProt P42858)	0.319	0.301	-0.0612
TMEM97 (UniProt Q5BJF2)	0.108	0.385	0.189
C9ORF85 (UniProt Q96MD7)	0.132	0.0672	1.62
TAF7 (UniProt Q15545)	0.641	-0.3	-0.347
ITFG2 (UniProt Q969R8)	-0.266	1.01	0.534
ENOSF1 (UniProt Q7L5Y1)	-1.01	-0.0529	0.0795
SASS6 (UniProt Q6UVJ0)	-0.481	-0.579	-0.207
SIRT1 (UniProt Q96EB6)	-0.922	-0.368	-0.379
HMGN5 (UniProt P82970)	-0.172	-0.141	-0.134
NRBF2 (UniProt Q96F24)	-0.0833	0.638	0.117
TNS2 (UniProt Q63HR2)	-0.101	-0.0104	-0.0152
KIF11 (UniProt P52732)	1.19	-0.347	0.00677
SESN2 (UniProt P58004)	-0.132	-0.134	0.162

Target	thermal stability z-score (potassium arsenate)	thermal stability z-score (lipoamide; [1])	thermal stability z-score (lipoamide; arsenate co-treatment: none)
NGLY1 (UniProt Q96IV0)	0.0507	-0.149	-0.0587
VAPA (UniProt Q9P0L0)	-1.14	0.25	-0.0574
UHRF1 (UniProt Q96T88)	-0.766	0.0776	0.0619
UBE3B (UniProt Q7Z3V4)	-0.212	-0.0453	-0.155
RPL11 (UniProt P62913)	-1.44	0.156	0.371
MARVELD2 (UniProt Q8N4S9)	-0.292	-0.452	0.477
CAV2 (UniProt P51636)	1.51	1.26	-0.268
ROR2 (UniProt Q01974)	-0.811	0.3	0.449
TOR1A (UniProt O14656)	0.174	-3.18	-3.08
TSPAN4 (UniProt O14817)	0.304	-0.0469	0.15
CCDC97 (UniProt Q96F63)	-0.925	-0.00687	0.225
TLE4 (UniProt Q04727)	0.289	-0.201	0.36
GLOD4 (UniProt Q9HC38)	0.311	2.19	2.33
RBX1 (UniProt P62877)	0.163	-0.311	0.0681
MGRN1 (UniProt O60291)	-0.181	-0.792	-0.153
RYBP (UniProt Q8N488)	-0.269	-0.607	-0.174
RELA (UniProt Q04206)	0.374	0.384	0.867
FAM65A (UniProt Q6ZS17)	-0.0314	0.215	0.0539

From the supplement of paper PMC12463676, “Small-molecule dissolution of stress granules by redox modulation benefits ALS models” (Nature Chemical Biology, 2025)
